In article PMC8286840, “Identifying SARS-CoV-2 antiviral compounds by screening for small molecule inhibitors of Nsp3 papain-like protease” (Biochemical Journal, 2021) one finds remaining activity data, which are given here for 30 compounds.

Where a name gives a salt, the structure may show the parent alone. Read-outs that look alike come from different tables or passages of the source.

Assay [1] has as its target T1, SARS-CoV-2 PLpro (nsp3 1564–1878) (Severe acute respiratory syndrome coronavirus 2, UniProt P0DTD1). The assay can be described thus: biochemical. Details: FRET-quenched peptide (Pro3) cleavage by PLpro, 10 min pre-incubation, slope over 20 min, normalised to no-compound control. To be noted: high concentration screen, read-out: % of control remaining.
Assay [2] has as its target T1, SARS-CoV-2 PLpro (nsp3 1564–1878). The assay can be described thus: biochemical. The settings on record: low concentration screen, read-out: % of control remaining. Set-up: FRET-quenched peptide (Pro3) cleavage by PLpro, 10 min pre-incubation, slope over 20 min, normalised to no-compound control.

In the case of `COc1ccc(/C=C/C(=O)c2c(O)cc(OC)cc2OC)cc1` [Flavokawain A], the remaining activity at 3.75 µM in assay [1] (Well no.=3607) is 105%. Further, in assay [2] (Well no.=3607), the remaining activity at 1.25 µM is 104%.
On to `COc1cc(O)c(C(=O)/C=C/c2ccccc2)c(OC)c1` [Flavokawain B], for which, in assay [1] (Well no.=3685), the remaining activity at 3.75 µM worked out at 100%. For the same compound, the remaining activity at 1.25 µM in assay [2] (Well no.=3685) was 98.5%.
With `Cc1c(-c2ccccc2)oc2c(C(=O)OCCN3CCCCC3)cccc2c1=O` [Flavoxate (hydrochloride)], the remaining activity at 3.75 µM in assay [1] (Well no.=6803) turned out to be 94.8%. Besides, the remaining activity at 1.25 µM in assay [2] (Well no.=6803) was 94.8%.
`Cc1c(-c2ccccc2)oc2c(C(=O)OCCN3CCCCC3)cccc2c1=O` [Flavoxate HCl]: the remaining activity at 3.75 µM in assay [1] (Well no.=5084) stood at 102%. In addition, the remaining activity at 1.25 µM in assay [2] (Well no.=5084) is 99%.
As to `O=C(NCC1CCCCN1)c1cc(OCC(F)(F)F)ccc1OCC(F)(F)F` (stereo not shown) [Flecainide acetate], the remaining activity at 3.75 µM worked out at 98.3% in assay [1] (Well no.=709) and 101% in assay [1] (Well no.=1649). Further, the remaining activity at 1.25 µM was 98.5% in assay [2] (Well no.=709) and 101% in assay [2] (Well no.=1649).
As for `CN1CCN(c2c(F)cc3c(=O)c(C(=O)O)cn(CCF)c3c2F)CC1` [Fleroxacin], in assay [1] (Well no.=2120), the remaining activity at 3.75 µM is 96.3%. In assay [2] (Well no.=2120), the remaining activity at 1.25 µM is 92.9%.
On to `O=c1[nH]c(=O)n([C@H]2C[C@H](O)[C@@H](CO)O2)cc1F` [Floxuridine], for which the remaining activity at 3.75 µM in assay [1] (Well no.=2124) was 102%; in assay [1] (Well no.=8010) it was 86.4%. Besides, the remaining activity at 1.25 µM in assay [2] (Well no.=2124) amounted to 98.1%; in assay [2] (Well no.=8010), 88%.
Regarding `c1ccc(-c2cnc(Nc3ccc(OCCN4CCCC4)cc3)s2)cc1` [Flt-3 Inhibitor III], the remaining activity at 3.75 µM in assay [1] (Well no.=2421) was found to be 98.8%. Moreover, the remaining activity at 1.25 µM in assay [2] (Well no.=2421) was 99.3%.
Turning to `O=C(c1cc2cc(O)ccc2[nH]1)c1cc2cc(O)ccc2[nH]1` [Flt-3 Inhibitor II], the remaining activity at 3.75 µM in assay [1] (Well no.=2409) was 110%. Besides, the remaining activity at 1.25 µM in assay [2] (Well no.=2409) is 109%.
For `COc1ccc(C(=O)Nc2sc3c(c2C(N)=O)CCCC3)cc1OC` [Flt-3 Inhibitor], the remaining activity at 3.75 µM in assay [1] (Well no.=2407) turned out to be 105%. Moreover, in assay [2] (Well no.=2407), the remaining activity at 1.25 µM turned out to be 105%.
`COC(=O)Nc1nc2cc(C(=O)c3ccc(F)cc3)ccc2[nH]1` [Flubendazole]: the remaining activity at 3.75 µM in assay [1] (Well no.=2128) came to 103%. Besides, the remaining activity at 1.25 µM in assay [2] (Well no.=2128) was 101%.
In the case of `OC(Cn1cncn1)(Cn1cncn1)c1ccc(F)cc1F` [Fluconazole], in assay [1] (Well no.=2132), the remaining activity at 3.75 µM was found to be 100%. In assay [2] (Well no.=2132), the remaining activity at 1.25 µM is 99.9%.
As for `Nc1nc(=O)[nH]cc1F` [Flucytosine (Ancobon)], the remaining activity at 3.75 µM in assay [1] (Well no.=5335) worked out at 101%. In assay [2] (Well no.=5335), the remaining activity at 1.25 µM turned out to be 94.7%.
Take `Nc1nc(F)nc2c1ncn2[C@@H]1O[C@H](CO)[C@@H](O)[C@@H]1O` [Fludarabine (Fludara)]: the remaining activity at 3.75 µM in assay [1] (Well no.=5249) was found to be 99.9%. Moreover, in assay [2] (Well no.=5249), the remaining activity at 1.25 µM was 98.3%.
In the case of `Nc1nc(F)nc2c1ncn2[C@@H]1O[C@H](COP(=O)(O)O)[C@@H](O)[C@@H]1O` [Fludarabine (phosphate)], in assay [1] (Well no.=8046), the remaining activity at 3.75 µM worked out at 98%. In addition, the remaining activity at 1.25 µM in assay [2] (Well no.=8046) came out at 95.8%.
Regarding `Nc1nc(F)nc2c1ncn2[C@@H]1O[C@H](CO)[C@@H](O)[C@@H]1O` [Fludarabine], in assay [1] (Well no.=7962), the remaining activity at 3.75 µM was 88.2%. In assay [2] (Well no.=7962), the remaining activity at 1.25 µM is 89.2%.
Turning to `CC(=O)OCC(=O)[C@@]1(O)CC[C@H]2[C@@H]3CCC4=CC(=O)CC[C@]4(C)[C@@]3(F)[C@@H](O)C[C@@]21C` [Fludrocortisone acetate], the remaining activity at 3.75 µM in assay [1] (Well no.=5827) came out at 104%. Moreover, the remaining activity at 1.25 µM in assay [2] (Well no.=5827) came to 103%.
Take `O=C(O)c1ccccc1Nc1cccc(C(F)(F)F)c1` [Flufenamic acid]: the remaining activity at 3.75 µM in assay [1] (Well no.=1639) came out at 105%. In assay [2] (Well no.=1639), the remaining activity at 1.25 µM was determined as 104%.
As for `CCOC(=O)c1ncn2c1CN(C)C(=O)c1cc(F)ccc1-2` [Flumazenil], the remaining activity at 3.75 µM in assay [1] (Well no.=517) was 106%; in assay [1] (Well no.=1575), 102%. Besides, the remaining activity at 1.25 µM was determined as 104% in assay [2] (Well no.=517) and 103% in assay [2] (Well no.=1575).
For the compound `CC1CCc2cc(F)cc3c(=O)c(C(=O)O)cn1c23` (stereo not shown) [Flumequine], the remaining activity at 3.75 µM in assay [1] (Well no.=5032) was 97.6%. The remaining activity at 1.25 µM in assay [2] (Well no.=5032) turned out to be 96.8%.
As to `Cc1c(Nc2ncccc2C(=O)O)cccc1C(F)(F)F` [Flunixin meglumin], the remaining activity at 3.75 µM in assay [1] (Well no.=5094) stood at 108%. In addition, the remaining activity at 1.25 µM in assay [2] (Well no.=5094) worked out at 103%.
For the compound `CC1(C)O[C@@H]2C[C@H]3[C@@H]4C[C@H](F)C5=CC(=O)C=C[C@]5(C)[C@@]4(F)[C@@H](O)C[C@]3(C)[C@]2(C(=O)CO)O1` [Fluocinolone (Acetonide)], in assay [1] (Well no.=6667), the remaining activity at 3.75 µM turned out to be 111%. Also, in assay [2] (Well no.=6667), the remaining activity at 1.25 µM worked out at 108%.
As to `CC1(C)O[C@@H]2C[C@H]3[C@@H]4C[C@H](F)C5=CC(=O)C=C[C@]5(C)[C@@]4(F)[C@@H](O)C[C@]3(C)[C@]2(C(=O)CO)O1` [Fluocinolone acetonide], in assay [1] (Well no.=2126), the remaining activity at 3.75 µM is 98.4%. The remaining activity at 1.25 µM in assay [2] (Well no.=2126) was 97.3%.
Take `CC(=O)OCC(=O)[C@@]12OC(C)(C)O[C@@H]1C[C@H]1[C@@H]3C[C@H](F)C4=CC(=O)C=C[C@]4(C)[C@@]3(F)[C@@H](O)C[C@@]12C` [Fluocinonide]: the remaining activity at 3.75 µM in assay [1] (Well no.=6805) was determined as 99.9%. Also, the remaining activity at 1.25 µM in assay [2] (Well no.=6805) turned out to be 98.5%.
In the case of `CNCCC(Oc1ccc(C(F)(F)F)cc1)c1ccccc1` (stereo not shown) [Fluoxetine hydrochloride], the remaining activity at 3.75 µM in assay [1] (Well no.=761) stood at 93.4%. The remaining activity at 1.25 µM in assay [2] (Well no.=761) is 95.3%.
Take `CNCCC(Oc1ccc(C(F)(F)F)cc1)c1ccccc1` (stereo not shown) [Fluoxetine]: the remaining activity at 3.75 µM in assay [1] (Well no.=2102) stood at 98.8%. Also, the remaining activity at 1.25 µM in assay [2] (Well no.=2102) was determined as 96.6%.
Turning to `CN1CCN(C2=Nc3cc(F)ccc3Cc3ccccc32)CC1` [Fluperlapine], the remaining activity at 3.75 µM in assay [1] (Well no.=2100) worked out at 98.8%. Besides, in assay [2] (Well no.=2100), the remaining activity at 1.25 µM was found to be 101%.
Take `CCOC(=O)Nc1ccc(NCc2ccc(F)cc2)nc1N` [Flupirtine maleate]: the remaining activity at 3.75 µM in assay [1] (Well no.=711) turned out to be 90.6%. Moreover, in assay [2] (Well no.=711), the remaining activity at 1.25 µM is 95.7%.
With `CC(C(=O)O)c1ccc(-c2ccccc2)c(F)c1` (stereo not shown) [Flurbiprofen], the remaining activity at 3.75 µM in assay [1] (Well no.=2118) came to 101%. In assay [2] (Well no.=2118), the remaining activity at 1.25 µM was 99.6%.
`O=C1NCN(c2ccccc2)C12CCN(CCCC(c1ccc(F)cc1)c1ccc(F)cc1)CC2` [Fluspirilene]: the remaining activity at 3.75 µM is 97.3% in assay [1] (Well no.=569) and 98.9% in assay [1] (Well no.=1599). In assay [2] (Well no.=569), the remaining activity at 1.25 µM came out at 98.4%.
